Laboratory results from patent US20220175761A1, “BI-LIGAND DRUG CONJUGATE AND USE THEREOF” (COHERENT BIOPHARMA (SUZHOU), LIMITED, priority 2019, published 2022).

Columns and labels:
Assay in all cases: Inhibition of cell line proliferation, CCK8
Assay type in all cases: cell-based
[1] = test system: MDA-MB-468 (human breast cancer cells); settings: MDA-MB-468, 68-72 hours, CCK8
Protocol: (§1) Experimental Operations: LNCaP, SK-BR-3, MDA-MB-468 and CFPAC-1 cells were prepared in advance and counted; with a culture medium (IMDM+10% FBS+1× L-Glutamine+1×P/S), the cells LNCaP, SK-BR-3, MDA-MB-468 and CFPAC-1 were diluted to 4×10^4 cells/ml; the diluted cell solution was plated in 96-well plates at 100 µl/well; and negative control and blank control wells were set on each plate. After adherent cell culture overnight, the diluted samples to be tested were added at 50 μl/well. The plates were placed in an incubator at 37° C., 5% CO2 and cultured for 68-72 hours. To each well, 15 μl (10% of the liquid volume in a well) of a color developing solution from CCK8 was added; and the plates were incubated at 37° C. for 45-70 minutes and each plate was read at 450 nm on a microplate reader. The data was edited using SoftMax Pro and a 4-P fitting curve was plotted.
as §1, with “Operations: LNCaP, MDA-MB-468, CFPAC-1 and PANC-1” for “Operations: LNCaP, SK-BR-3, MDA-MB-468 and CFPAC-1”, “CFPAC-1 and PANC-1 cells were” for “MDA-MB-468 and CFPAC-1 cells were”, “cells LNCaP, MDA-MB-468 and” for “cells LNCaP, SK-BR-3, MDA-MB-468 and”, “to 4×10^4 cells/ml, and PANC-1 was diluted to 3.0×10^4 cells/ml; the” for “to 4×10^4 cells/ml; the”, “at 100 μl/well; and negative” for “at 100 µl/well; and negative”
(§2) Experimental operations: NCI-H226, CFPAC-1 and MDA-MB-468 cells were prepared in advance and counted; MDA-MB-468 and CFPAC-1 cells were plated at a density of 2×10^4 cells/ml (100 μl/well) and NCI-H226 cells were plated at a density of 1×10^4 cells/ml (100 μl/well) in 96-well plates; and negative control and blank control wells were set on each plate. After adherent cell culture overnight, the diluted samples to be tested were added at 50 μl/well. The plates were placed in an incubator at 37° C., 5% CO2 and cultured for 68-72 hours. To each well, 15 μl (10% of the liquid volume in a well) of a color developing solution from CCK8 was added; and the plates were incubated at 37° C. for 45-70 minutes and each plate was read at 450 nm on a microplate reader. The data was edited using SoftMax Pro and a 4-P fitting curve was plotted.

[2] = test system: NCI-H226 (human lung cancer cells); settings: NCI-H226, 68-72 hours, CCK8
Protocol: (§3) Experimental operations: LNCaP, SK-BR-3, NCI-H226, CFPAC-1 and PANC-1 cells were prepared in advance and counted; with a culture medium (IMDM+10% FBS+1× L-Glutamine+1×P/S), the cells LNCaP, SK-BR-3 and CFPAC-1 were diluted to 4×10^4 cells/ml, NCI-H226 was diluted to 2.0×10^4 cells/ml and PANC-1 was diluted to 3.0×10^4 cells/ml; the diluted cell solution was plated in 96-well plates at 100 μl/well; and negative control and blank control wells were set on each plate. After adherent cell culture overnight, the diluted samples to be tested were added at 50 μl/well. The plates were placed in an incubator at 37° C., 5% CO2 and cultured for 68-72 hours. To each well, 15 μl (10% of the liquid volume in a well) of a color developing solution from CCK8 was added; and the plates were incubated at 37° C. for 45-70 minutes and each plate was read at 450 nm on a microplate reader. The data was edited using SoftMax Pro and a 4-P fitting curve was plotted.
as §2

[3] = test system: CFPAC-1 (human pancreatic cancer cells); settings: CFPAC-1, 68-72 hours, CCK8
Protocol: Experimental operations: PANC-1 and CFPAC-1 cells were prepared in advance, counted, and plated in 96-well cell culture plates at a cell density of 4×10^4 cells/ml (100 μl/well); negative control and blank control wells were set on each plate. After adherent cell culture overnight, the diluted samples to be tested were added at 50 μl/well. The plates were placed in an incubator at 37° C., 5% CO2 and cultured for 68-72 hours. To each well, 15 μl (10% of the liquid volume in a well) of a color developing solution from CCK8 was added; and the plates were incubated at 37° C. for 45-70 minutes and each plate was read at 450 nm on a microplate reader. The data was edited using SoftMax Pro and a 4-P fitting curve was plotted.
as §3, §1
as §1, with “Operations: LNCaP, MDA-MB-468, CFPAC-1 and PANC-1” for “Operations: LNCaP, SK-BR-3, MDA-MB-468 and CFPAC-1”, “CFPAC-1 and PANC-1 cells were” for “MDA-MB-468 and CFPAC-1 cells were”, “cells LNCaP, MDA-MB-468 and” for “cells LNCaP, SK-BR-3, MDA-MB-468 and”, “to 4×10^4 cells/ml, and PANC-1 was diluted to 3.0×10^4 cells/ml; the” for “to 4×10^4 cells/ml; the”, “at 100 μl/well; and negative” for “at 100 µl/well; and negative”
Experimental operations: NCI-H226, CFPAC-1 and MDA-MB-468 cells were prepared in advance and counted; MDA-MB-468 and CFPAC-1 cells were plated at a density of 2×10^4 cells/ml (100 μl/well) and NCI-H226 cells were plated at a density of 1×10^4 cells/ml (100 μl/well) in 96-well plates; and negative control and blank control wells were set on each plate. After adherent cell culture overnight, the diluted samples to be tested were added at 50 μl/well. The plates were placed in an incubator at 37° C., 5% CO2 and cultured for 68-72 hours. […]

SMILES | IC50 [1] [nM] | IC50 [2] [nM] | IC50 [3] [nM]
CCCC(=O)N[C@@H](Cc1ccccc1)C(=O)N[C@H]1CSSC[C@@H](C(=O)N[C@H](C(=O)N[C@@H](CCCCNC(=O)[C@H](CCC(=O)O)NC(=O)CCOCCOCCOCCOCCNC(=O)[C@H](CCC(=O)O)NC(=O)[C@H](CSC2CC(=O)N(CCCCCC(=O)NCC(=O)NCC(=O)N[C@@H](Cc3ccccc3)C(=O)NCC(=O)NCOCC(=O)N[C@H]3CCc4c(C)c(F)cc5nc6c(c3c45)Cn3c-6cc4c(c3=O)COC(=O)[C@]4(O)CC)C2=O)NC(=O)CC[C@H](NC(=O)c2ccc(NCc3cnc4[nH]c(N)nc(=O)c4n3)cc2)C(=O)O)C(N)=O)[C@@H](C)O)NC(=O)[C@H]([C@@H](C)O)NC(=O)[C@H](CCCCN)NC(=O)[C@H](Cc2c[nH]c3ccccc23)NC(=O)[C@H](Cc2ccc(O)cc2)NC1=O (stereo partly drawn) [CR19426] | 2300 | 4390 | 1660
CC[C@@]1(O)C(=O)OCc2c1cc1n(c2=O)Cc2c-1nc1cc(F)c(C)c3c1c2[C@@H](NC(=O)CO)CC3 [Dxd0017, reference compound] | 6.1 | 8 | 6.4
CCc1c2c(nc3ccc(O)cc13)-c1cc3c(c(=O)n1C2)COC(=O)[C@]3(O)CC [SN-38, reference compound] | 13.6 | 17.3 | 5.5
